Results published in patent US20080004266A1, “Method for treating proliferative disorders associated with protooncogene products” (priority 2006, published 2008).
Entries after “also recorded” stand apart in the source; their conditions may differ.

How the values were obtained:
A375 cells (B-raf V600E) = experiment: Cell survival in A375 melanoma cells (Cell Counting Kit-8); type: cell-based, human; settings: 72 hours
Experimental: Human melanoma cell line, A375 (2×10^6 cells), which contains the V600E mutation in the B-raf protein that confers constitutive […] kinase activity, was obtained from American Type Culture Collection. A375 cells (20,000 cells/well) were cultured in 96-well plates and maintained at 37° C. for several hours. The cells were incubated at 37° C. for 72 hours with various concentrations of compound 226, 17AAG or 17DMAG. 17AAG and 17DMAG are Hsp90 inhibitors that are currently in clinical trials and are used here as positive controls for Hsp90 inhibition. Cell survival was measured with Cell Counting Kit-8 (Dojindo Laboratories, Cat # CK04).

[1] = tested on: Karpas-299 cells (NPM-ALK); experiment: Cell survival in Karpas-299 cells (Cell Counting Kit-8); type: cell-based, human; settings: 72 hours
Experimental: Growth of this tumor cell line is dependent upon the expression of the NPM-ALK fusion protein. Karpas-299 cells (20,000 cells/well) were cultured in 96-well plates and maintained at 37° C. for several hours. The cells were incubated at 37° C. for 72 hours with various concentrations of compound 226 of the invention, 17AAG, and 17DMAG. 17AAG and 17DMAG are Hsp90 inhibitors that are currently in clinical trials and are used here as positive controls for Hsp90 inhibition. Cell survival was measured with Cell Counting Kit-8 (Dojindo Laboratories, Cat # CK04).

c-kit [2] = experiment: FACS-based c-kit degradation assay in HEL92.1.7 cells; type: cell-based; settings: about 18 h, compounds at 0.5 and 0.05 μM, 17-AAG at 0.5 μM
Experimental: (§1) Two leukemia cell lines, HEL92.1.7 and Kasumi-1, were used for testing c-kit degradation induced by Hsp90 inhibitors of the invention. […] The cells were collected and centrifuged (SORVALL RT 6000D) at 1200 rpm for 5 min. The supernatants were discarded, and the cells were washed one time with 1×PBS. After centrifugation the cells were stained with FITC conjugated c-kit antibody (MBL International, Cat# K0105-4) in […] 1×PBS at 4° C. for 1 h. The samples were read and analysized with FACSCalibur flow cytometer (Becton Dicknson).

[3] = tested on: c-Kit tyrosine kinase receptor (N822K mutation); experiment: Western blot analysis of c-Kit in Kasumi-1 cells; type: cell-based, human; settings: 100 nM and 400 nM
Text: The results of the FACS analysis were confirmed with Western blot analysis (see FIG. 5). […] In contrast, 17-AAG had no effect of c-Kit protein levels.

c-kit [4] = experiment: FACS-based c-kit degradation assay in Kasumi-1 cells; type: cell-based, human; settings: about 18 h, compounds at 0.5 and 0.05 μM, 17-AAG at 0.5 μM
Experimental: as §1

K562 cells (Bcr-Abl) = experiment: Cell survival in K562 cells (Cell Counting Kit-8); type: cell-based, human; settings: Homo sapiens, 72 hours
Experimental: Growth of this tumor cell line is dependent upon the expression of the Bcr-Abl fusion protein (C. Gambacarti-Passerini et al., Blood Cells Mol. Dis. 23:380-394, 1997). K562 cells (20,000 cells/well) were cultured in 96-well plates and maintained at 37° C. for several hours. […] 17AAG, DMAG, and Radicical are Hsp90 inhibitors that are currently in clinical trials and are used here as positive controls for Hsp90 inhibition. […] Cell survival was measured with Cell Counting Kit-8 (Dojindo Laboratories, Cat # CK04).

phosphorylated Bcr-Abl = experiment: Degradation of Bcr-Abl in KU812 cells (Western blot); type: cell-based; settings: 18 hours
Experimental: KU812 chronic myeloid leukemia cells (ATCC) (2×10^6 cells), which harbor the Philadelphia chromosome that produces Bcr-Abl tyrosine kinase, were treated (0.1 μM and 1.0 μM) with either Compound 226, 17-AAG or 17-DMAG. After 18 hours, the cells were lysed with 1× lysis buffer, and a western blot was perform using anti-BCR-ABL antibody to detect phosphorylated Bcr-Abl.

MV 4-11 cells (FLT3-ITD) = experiment: Cell survival in MV-4-11 cells (Cell Counting Kit-8); type: cell-based, human; settings: Homo sapiens, MV4-11, 72 hours
Experimental: Human acute myelogenous leukemia (AML) cell line, MV 4-11 (ATCC #CRL-9591), was obtained from the American Type Culture Collection (ATCC; Manassas, Va., USA). Growth of this tumor cell line is dependent upon the expression of an activated form of the FLT3 tyrosine kinase receptor carrying an internal tandem duplication (ITD) mutation, which is the most common molecular defect associated with AML (K. W. Yee et al., Blood 100:2941-2949, 2002). MV 4-11 cells (20,000 cells/well) were cultured in 96-well plates and maintained at 37° C. for several hours. The cells were incubated at 37° C. for 72 hours with various concentrations of compounds of the invention, 17AAG, or DMAG. 17AAG and DMAG are Hsp90 inhibitors that are currently in clinical trials and are used here as positive controls for Hsp90 inhibition. Cell survival was measured with Cell Counting Kit-8 (Dojindo Laboratories, Cat # CK04).

[5] = tested on: Kasumi-1 cells (c-Kit N822K); experiment: Cell survival in Kasumi-1 cells (Cell Counting Kit-8); type: cell-based, human; settings: Homo sapiens, 72 hours
Experimental: Kasumi-1 cells (20,000 cells/well) were cultured in 96-well plates and maintained at 37° C. for several hours. […] 17AAG and DMAG are Hsp90 inhibitors that are currently in clinical trials and are used here as positive controls for Hsp90 inhibition. […] Cell survival was measured with Cell Counting Kit-8 (Dojindo Laboratories, Cat # CK04).

[6] = tested on: human tumor cell line MDA-MB-435S; experiment: MDA-MB-435S nude mouse xenograft model; type: in vivo; settings: nude mice, 300 mg/kg body weight IP, 5 times per week for 3 weeks, versus vehicle
Experimental: FBS was obtained from Sigma-Aldrich Corp. (St. Louis, Mo., USA), and all other reagents were obtained from Invitrogen Corp. (Carlsbad, Calif., USA). Approximately 4−5×10 (6) cells that had been cryopreserved in liquid nitrogen were rapidly thawed at 37° C. and transferred to a 175 cm^2 tissue culture flask containing 50 ml of growth media and then incubated at 37° C. in a 5% CO2 incubator. The growth media was replaced every 2-3 days until the flask became 90% confluent, typically in 5-7 days. To passage and expand the cell line, a 90% confluent flask was washed with 10 ml of room temperature phosphate buffered saline (PBS) and the cells were disassociated by adding 5 ml 1× Trypsin-EDTA (Invitrogen) and incubating at 37° C. until the cells detached from the surface of the flask. To inactivate the trypsin, 5 ml of growth media was added and then the contents of the flask were centrifuged to pellet the cells. The supernatant was aspirated and the cell pellet was resuspended in 10 ml of growth media and the cell number determined using a hemocytometer. […]
Six to eight week old, female Crl:CD-1-nuBR (nude) mice were obtained from Charles River Laboratories (Wilmington, Mass., USA). […] Tumor volumes (V) were calculated by caliper measurement of the width (W), length (L) and thickness (T) of tumors using the following formula: V=[…]×(L×W×T). […]

## CO[C@H]1/C=C\C=C(/C)C(=O)NC2=CC(=O)C(NCCN(C)C)=C(C[C@@H](C)C[C@H](OC)[C@H](O)[C@@H](C)/C=C(\C)[C@@H]1OC(N)=O)C2=O [Compound 17DMAG, 17-(2-dimethylaminoethyl-1)amino-17-desmethoxygeldanamycin]
A375 cells (B-raf V600E)
  IC50: 4 nM
[1]
  IC50: 62 nM

## C=CCNC1=C2C[C@@H](C)C[C@H](OC)[C@H](O)[C@@H](C)/C=C(\C)[C@H](OC(N)=O)[C@@H](OC)/C=C\C=C(/C)C(=O)NC(=CC1=O)C2=O [Compound 17-AAG, 17-allylamino-17-demethoxygeldanamycin, reference compound]
c-kit [2]
  c-kit degradation (c-kit positive population, FACS): could not induce c-kit degradation
[3]
  c-Kit protein levels (Western blot): no effect
c-kit [4]
  c-kit degradation (c-kit positive population, FACS): could not induce c-kit degradation

## C[C@@H]1C[C@H]2O[C@@H]2/C=C\C=C\C(=O)Cc2c(Cl)c(O)cc(O)c2C(=O)O1 [Radicical, Radicicol]
K562 cells (Bcr-Abl)
  IC50: 331 nM

## CO[C@H]1/C=C\C=C(/C)C(=O)NC2=CC(=O)C(NCCN(C)C)=C(C[C@@H](C)C[C@H](OC)[C@H](O)[C@@H](C)/C=C(\C)[C@@H]1OC(N)=O)C2=O [Compound 17-DMAG]
Phosphorylated Bcr-Abl; 0.1 μM
  degradation of phosphorylated Bcr-Abl: partial degradation
Phosphorylated Bcr-Abl; 1.0 μM
  degradation of phosphorylated Bcr-Abl: complete degradation

## CCc1cc(-c2nnc(S)n2-c2ccc(OC)c3c2ccn3C(C)C)c(O)cc1O [Compound 188, 3-(2,4-Dihydroxy-5-ethyl-phenyl)-4-(1-isopropyl-7-methoxy-indol-4-yl)-5-mercapto-[1,2,4]triazole]
c-kit [2]
  c-kit degradation (c-kit positive population, FACS): induced c-kit degradation
MV 4-11 cells (FLT3-ITD)
  IC50: 25 nM
[5]
  IC50: 72 nM
c-kit [4]
  c-kit degradation (c-kit positive population, FACS): induced c-kit degradation

## COc1ccc(-n2c(S)nnc2-c2cc(C(C)C)c(O)cc2O)c2ccn(C(C)C)c12 [Compound 208, 3-(2,4-di-hydroxy-5-isopropyl-phenyl)-4-(1-isopropyl-7-methoxy-indol-4-yl)-5-mercapto-[1,2,4] triazole]
MV 4-11 cells (FLT3-ITD)
  IC50: 20 nM
[5]
  IC50: 49 nM

## CC(C)c1cc(-c2nnc(S)n2-c2ccc3c(ccn3C)c2)c(O)cc1O [Compound 221, 3-(2,4-di-hydroxy-5-isopropyl-phenyl)-4-(N-methyl-indol-5-yl)-5-mercapto-[1,2,4] triazole]
c-kit [2]
  c-kit degradation (c-kit positive population, FACS): induced c-kit degradation
[3]
  c-Kit protein levels (Western blot): induced the degradation of c-Kit
c-kit [4]
  c-kit degradation (c-kit positive population, FACS): induced c-kit degradation

## CCc1cc(-c2nnc(S)n2-c2cccc3ccccc23)c(O)cc1O [Compound 49, 3-(2,4-Di-hydroxy-5-ethyl-phenyl)-4-(naphthalen-1-yl)-5-mercapto-triazole]
[6]
  toxicity (effect on body weights): not toxic; also recorded: not associated with significant toxicity

## CCCn1ccc2c(-n3c(S)nnc3-c3cc(C4CC4)c(O)cc3O)ccc(OC)c21 [Compound 205, 3-(2,4-di-hydroxy-5-cyclopropyl-phenyl)-4-(1-propyl-7-methoxy-indol-4-yl)-5-mercapto-[1,2,4] triazole]
MV 4-11 cells (FLT3-ITD)
  IC50: 49 nM
